Test results published in US20110091931A1, “Methods and Kits for Determining Oxygen Free Radical (OFR) Levels in Animal and Human Tissues as a Prognostic Marker for Cancer and Other Pathophysiologies” (COLBY PHARMACEUTICAL COMPANY, priority 2009, published 2011).
Entries after “also recorded” stand apart in the source; their conditions may differ.

Tests used:
androgen receptor = target: T1, androgen receptor (Homo sapiens, UniProt P10275, T878A); details: human LNCaP prostate cancer cells; cited from earlier work
T1 construct: androgen receptor in human LNCaP prostate cancer cells in laboratory studies; host or cells: LNCaP
T1 sequence (P10275 1-920 T878A): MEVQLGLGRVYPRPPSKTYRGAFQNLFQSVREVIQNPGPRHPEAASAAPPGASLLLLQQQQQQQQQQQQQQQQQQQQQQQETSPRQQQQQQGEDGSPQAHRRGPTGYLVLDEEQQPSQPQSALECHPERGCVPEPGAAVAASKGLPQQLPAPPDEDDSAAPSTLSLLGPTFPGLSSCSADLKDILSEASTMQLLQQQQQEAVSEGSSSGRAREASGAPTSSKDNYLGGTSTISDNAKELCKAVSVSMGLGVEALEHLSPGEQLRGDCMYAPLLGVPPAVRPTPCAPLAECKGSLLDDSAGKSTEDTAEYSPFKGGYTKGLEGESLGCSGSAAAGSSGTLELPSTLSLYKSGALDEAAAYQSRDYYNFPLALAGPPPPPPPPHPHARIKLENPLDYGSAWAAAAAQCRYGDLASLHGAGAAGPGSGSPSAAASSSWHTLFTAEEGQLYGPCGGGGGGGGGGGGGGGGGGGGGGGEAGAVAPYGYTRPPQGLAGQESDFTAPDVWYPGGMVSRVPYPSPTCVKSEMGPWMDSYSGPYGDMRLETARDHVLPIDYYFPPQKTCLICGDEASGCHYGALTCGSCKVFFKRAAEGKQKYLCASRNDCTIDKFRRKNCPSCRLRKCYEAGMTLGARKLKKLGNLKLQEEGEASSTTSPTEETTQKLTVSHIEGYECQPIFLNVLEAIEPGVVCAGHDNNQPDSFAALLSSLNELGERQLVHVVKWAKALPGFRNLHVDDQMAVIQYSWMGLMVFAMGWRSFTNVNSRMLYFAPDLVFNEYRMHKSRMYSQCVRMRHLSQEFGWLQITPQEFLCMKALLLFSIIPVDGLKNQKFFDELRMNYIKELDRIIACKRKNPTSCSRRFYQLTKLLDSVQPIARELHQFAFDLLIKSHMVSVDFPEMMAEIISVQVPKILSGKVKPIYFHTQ

[1] = test system: cytochrome P450 (CYP) class of enzymes; details: compared with I3C; cited from earlier work
prostate cancer cells = details: cited from earlier work
LNCaP cells [2] = experiment: HPLC quantitation of polyamine and acetyl polyamine levels in LNCaP cells; format: cell-based, human
From the text: This method is routinely used in the analytical laboratory of the core facility of Cancer Centers and was accessible for quantitative assays necessary for the PK/PD determinations. […] Each data point was an average of two determinations where sample cell pellets were collected from three independent experiments.

LNCaP cells [3] = experiment: DCF dye oxidation assay of androgen (R1881) induced ROS production; format: cell-based, human
Description: SSAT induction is a major source of androgen induced oxidative stress. In order to confirm that SSAT was the major source of androgen induced oxidative stress, we developed and used a stable LNCaP cell clone transfected with plasmid transcribing siRNA designed to silence SSAT mRNA expression. The SSAT mRNA level in these cells was determined by qRT-PCR method. In the cells transfected only with the vector, the SSAT mRNA level increased by over 8-fold after 96 h treatment with R1881, whereas in cells stably transfected with SSAT siRNA (si22), R1881 under similar treatment condition induced less than 2-fold increase in the SSAT transcript, showing over 75% silencing of SSAT mRNA expression. The ROS production induced by androgen analog R1881 in these cells was measured by DCF dye oxidation assay. The green fluorescence of oxidized DCF in androgen treated LNCaP cells was shown. The effect of SSAT silencing on the R1881 induced ROS production measured by DCF assay was also shown. The ratio of DCF fluorescence (green):DNA fluorescence (blue) for each of the treated well of a 96 well plate normalized to that of the average of control untreated wells represents the ROS level per cell relative to that in control untreated cells. The data points are the mean of numbers obtained from repeat experiments using thirty identically treated wells.
Each data point was an average of readings from six wells repeated twice in triplicates. […] The ROS levels of all CPC-200 pretreated cells were normalized to the ROS levels of cells treated with CPC-200 alone.

[4] = test system: prostate tissue in TRAMPxFVB animals; experiment: In vivo hydroethidine (HEt) dye oxidation in prostate tissue; design: species or system mouse
From the text: In parallel to standardizing and validating quantitation of cellular fluorescence intensities with the Bioimager system, we also standardized conditions for fluorescence dye oxidation in animal tissues in vivo and in human tissue ex vivo using standard fluorescence microscopy. For these studies, another dye hydroethidine (HEt) was used. HEt in reduced form is colorless. It is oxidized by the ROS superoxide to ethidium (E^+). The intense fluorescence of E^+ion can be monitored at 488 excitation/595 emission frequencies at sub-nanomolar concentrations. […] After sacrifice, animals were exsanguinated to reduce fluorescence interference from blood hemoglobin. […] Unlike what observed in DCF dye oxidation assay in LNCaP cells where nuclei are more fluorescent than are the cytoplasms (FIG. 5B), the HEt dye fluorescence in the cytoplasm of the normal prostatic lumen is more than that in the nuclei. […] This is ascertained when the fluorescence intensities of HEt dye in the human tumor and normal tissue ROS are quantitated, as described herein.
We standardized the in vivo method of Hydroethidine (HEt) dye oxidation. […] Prostate tissues in paraffin blocks were sectioned on a microtome, thin sections were de-paraffinized and observed under a fluorescence microscope at 480 nm excitation and 600 nm emission wavelengths. […]

TRAMP tumors = experiment: Chemopreventive efficacy against TRAMP tumors (tumor development, survival, PET-CT); format: in vivo, mouse
Description: Mice are treated with the optimal dose regimen and A cohort of 10 mice from each treatment will be euthanized at 24 weeks of age, when primary tumors are evident in the control group and the tumors collected for pharmacology, necropsy and other toxicity and tumor burden analyses. […] The remaining 20 mice per condition were followed for survival. Body weights and tumor volumes were measured once weekly throughout the study. A cohort of 10 mice in this treatment group is also monitored over the course of drug treatment by PET-CT scan for tumor growth and metastases. Each mouse is injected with ^124I labeled NM-404 per standard protocol and imaged on the microPET-microCT scanner.

[5] = Observed adverse side effects of CPC-200 treatment in vivo
[6] = in vivo, iv

c1ccc2c(Cc3c[nH]c4ccccc34)c[nH]c2c1 [DIM, 3,3′-Diindolylmethane]
androgen receptor activation (androgen receptor): block androgen receptor activation
binding of dihydrotestosterone (DHT) to the androgen receptor (androgen receptor): decreased binding
induction of cytochrome P450 (CYP) class of enzymes [1]: to a lesser extent than does I^3C
PSA (prostate cancer cells): downregulation of PSA
proliferation of prostate cancer cells (prostate cancer cells; in vitro and in a mouse xenograft model): inhibition of proliferation

N,N′-bis(butadienyl)-1,4-butanediamine [CPC-200]
R1881 induced increase in putrescine and spermidine (LNCaP cells [2]; 24 h CPC-200 pretreatment of R1881-treated cells): almost completely blocked
effect on most cellular polyamine levels (LNCaP cells [2]; CPC-200 treatment alone): little or no significant effect
R1881 (≧1 nM) induced ROS production (LNCaP cells [3]; LNCaP cells, 24 h pretreatment with 25 μM CPC-200, R1881 96 h): effectively blocked
cellular ROS levels (LNCaP cells [3]; LNCaP cells, CPC-200 treatment alone (25 μM)): minor decrease
androgen-induced oxidative stress in cultured androgen-dependent human prostate cancer cells (LNCaP cells [3]; summary statement): significantly reduces oxidative stress; also recorded: almost completely blocked
oxidative stress in prostate tissue / pre-neoplastic lesions in vivo ([4]; TRAMP model, summary statement): significantly reduces oxidative stress; also recorded: unambiguous reduction in oxidative stress
HEt reporter dye monitored oxidation in prostatic tissue ([4]; TRAMPxFVB mice, six administrations of 25 mg/kg CPC-200 i.p. once every two weeks, HEt 8 mg/kg i.v.): no significant HEt reporter dye monitored oxidation is detected
overall survival (TRAMP tumors; TRAMP mice): greatly increases; also recorded: markedly increased
time to spontaneous prostate tumor development (TRAMP tumors; TRAMP model): markedly delays; also recorded: greatly delayed
prostate tumor by PET-CT scan (TRAMP tumors; TRxF male mice, scans at age 8, 12, 18 and 24 weeks): no prostate tumor
adverse side effects [5]: without any observable adverse side effects

CCN1c2cc(N)ccc2-c2ccc(N)cc2C1c1ccccc1 (centres unmarked) [HEt, hydroethidine]
safety of i.v. injection [6]: can be safely injected i.v.
